Experimental data as given in patent publication EP0010119A1, “Isoquinoline derivatives, their preparation and pharmaceutical compositions containing these compounds” (THE MASSACHUSETTS GENERAL HOSPITAL, priority 1978, dated 1980).

Legend:
[1] = tested on: twitch response of the tibialis anterior muscle; experiment: Neuromuscular block of the twitch response of the tibialis anterior muscle in anesthetized monkeys; format: in vivo, RHESUS MONKEY
[2] = tested on: skeletal muscle relaxation; settings: in vivo; cited from earlier work
[3] = time span from drug injection to full recovery of the twitch response, halothane, nitrous oxide and oxygen anesthesia, 4 animals per compound

Compound | Range of dupation of action (minutes from injection to full recovery) [1, 3] | other results
COc1cc2c3cc1Oc1cc(ccc1O)C[C@@H]1c4c(cc(OC)c(O)c4Oc4ccc(cc4)C[C@@H]3N(C)CC2)CC[N+]1(C)C.Cl.O.O.O.O.O.[Cl-] [l-Tube-curarine, d-tubocurarine chloride] | 30 to 50 min | ED95 ([1]; dose range to produce 95 per cent block of the twitch response, muscle stimulated indirectly at 0,15 Hz via the sciatic nerve, halothane, nitrous oxide and oxygen anesthesia, 4 animals per compound): 0,2 - 0,4 MG/NG cation
C[N+](C)(C)CCOC(=O)CCC(=O)OCC[N+](C)(C)C [Succinyl-choline, succinylcholine chloride] |  | duration of action [2]: 5 to 15 min; ED95 ([1]; rhesus monkey, in vivo): 1,0 - 2,0 MG/NG cation; Range of dupation of action (minutes from injection to full recovery) ([1]; rhesus monkey, in vivo): 4 to 6 min
COc1ccc(CC2c3cc(OC)c(OC)cc3CC[N+]2(C)CCCOC(=O)Cc2ccc(CC(=O)OCCC[N+]3(C)CCc4cc(OC)c(OC)cc4C3Cc3ccc(OC)c(OC)c3)cc2)cc1OC (stereo not shown) [KK100] | 10 to 20 min | 
COc1cc2c(cc1OC)C(Cc1cc(OC)c(OC)c(OC)c1)[N+](C)(CCCOC(=O)C=Cc1ccc(C=CC(=O)OCCC[N+]3(C)CCc4cc(OC)c(OC)cc4C3Cc3cc(OC)c(OC)c(OC)c3)cc1)CC2 (stereo not drawn) [HH109, Bis-3-[N-methyl-l-(3,4,5-trimethoxybenzyl)] 6,7-dimethoxy-1,2,3,4-tetrahydroisoquinolinium propyl p-phenylene-3,3'-diacrylate dichloride] | 20 to 30 min | 
COc1ccc(CC2c3cc(OC)c(OC)cc3CC[N+]2(C)CCCOC(=O)C=Cc2ccc(C=CC(=O)OCCC[N+]3(C)CCc4cc(OC)c(OC)cc4C3Cc3ccc(OC)c(OC)c3)cc2)cc1OC (stereo not shown) [GG195, Bis-3-[N-methyl-1-(3,4-dimethoxybenzyl) 6,7-dimethoxy-1,2,3,4-tetrahydroisoquinolinium] propyl p-phenylene-3,3'-diacrylate dichlorid] | 15 to 30 min | 
C[N+](C)(C)CCCCCCCCCC[N+](C)(C)C [decamethonium] |  | duration of action [2]: 20 to 40 min
COc1cc2c(cc1OC)C(Cc1cc(OC)c(OC)c(OC)c1)[N+](C)(CCCOC(=O)Cc1ccc(CC(=O)OCCC[N+]3(C)CCc4cc(OC)c(OC)cc4C3Cc3cc(OC)c(OC)c(OC)c3)cc1)CC2 (stereo not shown) [LL46, Bis-3-(N-methyl-1-(3,4,5-trimethoxybenzyl) 6,7-dimethoxy-1,2,3,4-tetrahydroisoquinolinium) propyl p-phenylene-3,3'-diacetate dichloride] | 15 to 25 min | 
